# Experimental data taken from patent US7588756B1, “Treatment of cardiac power failure” (priority 1999, dated 2009).
# Key:
# [1] = clinical studies; cited from earlier work
# [2] = tested on: saponin-semipermeabilized skeletal muscle fibres of the rat; test: Isometric force of saponin-semipermeabilized (skinned) skeletal muscle fibres, indirect measure of Ca2+ release from the SR; details: for Ca2+ sensitivity of the contractile apparatus / increase of maximum force development compared with the control: slow skeletal musculature (M. soleus); for Ca2+ sensitivity of the contractile apparatus: 5-10 μM; for increase of maximum force development compared with the control: equimolar concentration 5-10 μM
# Protocol: The aim of this test procedure was therefore to examine what functional significance these sequences—in the form of synthetic peptides—have compared with the whole protein for the regulation of the Ca^2+ release from the SR. The Ca^2+ release was measured indirectly on saponin-semipermeabilized skeletal muscle fibres of the rat over an isometric force gradient. The measurement of the isometric force before and after addition of S100A1 peptide/protein served as a control.
# [3] = tested on: protein kinase C; details: cited from earlier work
# [4] = tested on: neonatal rat cardiomyocytes; test: Intracellular Ca2+ transients in cultivated neonatal rat cardiomyocytes after co-cultivation with recombinant S100A1; assay type: cell-based; details: S100A1 1 μM to 10 μM at two-day intervals, 7 days
# Protocol: Neonatal rat hearts were removed from 3-day-old rats, ventricles separated from the atria and stored coarse-ground on ice in ADS buffer (6.8 g NaCl, 4.76 g HEPES, 0.12 g NaH2PO4, 1 g glucose, 0.4 g KCl, 0.1 g MgSO4 and 1000 ml H2O). In a bioreactor (Wheaton® container), the cells were then separated from the tissue assembly by means of collagenase digestion (108 U/mg/ml collagenase, Worthington, USA), and the released cells separated over a density gradient (Percoll, Pharmacia®) by centrifugation. The cardiomyocyte fraction was resuspended in cell culture medium (DMEM+10% newborn calf serum) and plated in a density of approx. 100,000 cardiomyocytes per well on 24-well cell culture plates. After 24 hours culture at 37° C. and 5% CO2, recombinant S100A1 was added to the cell culture medium at two-day intervals in concentrations of 1 μM to 10 μM. […] The intracellular Ca^2+ transients were then detected and quantified by means of inverse fluorescence microscopy (Olympus OSP 3®) under both rest conditions and electrical field stimulation (PHYWE®-bioelectrical measurement unit; frequencies of 30-300 bpm). […] The changes in the Ca^2+ concentration per time unit were measured as a quotient from the time until the signal maximum and the signal amplitude (+dc/dt) were reached or as a quotient of the time until the half amplitude and the signal amplitude (−dc/dt) were reached. […]
# [5] = tested on: microtubuli and intermediate filaments; details: biochemical reconstitutive assays; cited from earlier work
molecule,measurement,setting,value
COc1ccc(-c2nc3ccc(C4=NNC(=O)CC4C)cc3[nH]2)cc1 (stereo not shown) [pimobendan],improvement of the heart function compared with placebo,[1],no significant improvement of the heart function
"combination of the three peptides: Combination of the N-terminal, hinge region and C-terminal synthetic S100A1 peptides (peptide 1 GSELETAMETLINVF; peptide 2 LSGFLDAQKDVDA; peptide 3 YVVLVAALTVA)",Ca2+ sensitivity of the contractile apparatus,[2],unchanged
same,increase of maximum force development compared with the control,[2],49%±6%
combination of “C-terminal” peptide and the “hinge region”: Combination of the C-terminal and hinge region synthetic S100A1 peptides (peptide 1 LSGFLDAQKDVDA; peptide 2 YVVLVAALTVA),increase of isometric force development,[2]; before versus after addition of peptide,15%±4%
recombinant S100A1: Human recombinant Ca2+-binding protein S100A1 (SEQ ID NO: 2) prepared in genetically modified E. coli,effect on protein kinase C,[3],inhibition
same,Ca2+ sensitivity of the contractile apparatus,[2],unchanged
same,increase of maximum force development compared with the control,[2],52%±7%
same,"rise in the Ca2+ concentration per time unit in the systole (+dc/dt), increase in comparison with the control cell population",[4]; p<0.0002,3 times
same,"drop in the Ca2+ concentration per time unit in the diastole (-dc/dt), acceleration in comparison with the control cell population",[4]; p<0.0003,2.2 times
same,polymerization of microtubuli and of intermediate filaments,[5],inhibition
